The test system of data set [1] is human lung cells. To be noted: cited from earlier work.
Data set [2] has as its system Staphylococcus aureus LMG 21674 (FUSR). Put plainly: Indirect antibacterial activity in association with penicillin V. It is filed as cell-based. The settings on record: sample at sub-MIC, versus penicillin V alone (16 μg/mL). The text has this:
(§1) Two types of antibacterial assays were employed as previously described. […] The tested strains were the Gram-positive Staphylococcus aureus LMG 15,975 (methicillin-resistant S. aureus, abbreviated as MRSA) and S. aureus LMG 21,674 (fusidic-acid-resistant S. aureus, abbreviated as FUSR). The chosen antibiotics were penicillin V and fusidic acid. The broth microdilution method in 96-well plates was used to determine the minimum inhibitory concentration (MIC). For the direct activity, samples were serially diluted to achieve a concentration ranging from 1 mg/mL to 2 μg/mL. For the indirect activity, the antibiotic was first serially diluted (from 64 to 7.103 μg/mL) and the samples were subsequently added to the wells at the defined sub-MIC concentration. These ranges were chosen because above them the sample is considered as non-active. For both assays, the inoculum was prepared from a suspension of 24-hour colonies to obtain a turbidity of 0.5 McFarland and added to the wells to achieve a final concentration of 5 × 10^5 CFU/mL. Plates were then incubated at 37 °C overnight and MTT (0.8 mg/mL) was used to determine the MIC by naked eye. A growth (Mueller–Hinton broth medium with inoculum) and a non-growth (only MHB) control were carried out. In addition, antibiotics were also always tested alone as positive controls.
(§2) The indirect activity presented in this study made use of a different method to test synergistic effects between two compounds. The difference with the traditional checkerboard method was that compound A (antibiotic) was serially diluted and compound B (essential oil/pure metabolite or homemade mixture) was added at a fix sub-MIC concentration, determined under the cytotoxic activity threshold. […] An indirect activity is observed when the MIC of the association is lower than the MIC of the antibiotic alone.

Data set [3] has as its system Staphylococcus aureus LMG 15975 (MRSA). The description is as above. Format: cell-based. To be noted: sample at sub-MIC, versus penicillin V alone (4 μg/mL).
Source text: as §1, §2

The test system of data set [4] is Staphylococcus aureus LMG 21674 (FUSR). The data set can be described thus: Direct antibacterial activity, broth microdilution MIC. It is filed as cell-based. To be noted: for MIC: Staphylococcus aureus. The procedure: (§3) Two types of antibacterial assays were employed as previously described. All the samples, essential oils, mixtures of essential oil types, and individual compounds were evaluated alone (direct activity) or in association with an antibiotic (indirect activity) at a sub-MIC concentration (non-active concentration). The tested strains were the Gram-positive Staphylococcus aureus LMG 15,975 (methicillin-resistant S. aureus, abbreviated as MRSA) and S. aureus LMG 21,674 (fusidic-acid-resistant S. aureus, abbreviated as FUSR). The chosen antibiotics were penicillin V and fusidic acid. The broth microdilution method in 96-well plates was used to determine the minimum inhibitory concentration (MIC). For the direct activity, samples were serially diluted to achieve a concentration ranging from 1 mg/mL to 2 μg/mL. For the indirect activity, the antibiotic was first serially diluted (from 64 to 7.103 μg/mL) and the samples were subsequently added to the wells at the defined sub-MIC concentration. These ranges were chosen because above them the sample is considered as non-active. For both assays, the inoculum was prepared from a suspension of 24-hour colonies to obtain a turbidity of 0.5 McFarland and added to the wells to achieve a final concentration of 5 × 10^5 CFU/mL. Plates were then incubated at 37 °C overnight and MTT (0.8 mg/mL) was used to determine the MIC by naked eye. A growth (Mueller–Hinton broth medium with inoculum) and a non-growth (only MHB) control were carried out. In addition, antibiotics were also always tested alone as positive controls.
On the technique in general: Dilution methods test growth across graded concentrations, often in twofold steps.

In data set [5] the test system is Staphylococcus aureus LMG 15975 (MRSA). The data set is described as above. To be noted: read-out: Direct Activity MRSA MIC. Format: cell-based. How it is done:
as §3

Data set [6] can be described thus: Cytotoxic activity, colorimetric MTT assay on keratinocytes. Format: cell-based. The settings on record: human, HaCaT keratinocyte cells, interpretation proposed by Döll-Boscardin et al. The procedure:
The effect of each essential oil on the global growth of the cell line was investigated through a colorimetric MTT assay as previously described. Briefly, human keratinocytes cells (HaCaT) were grown in RPMI supplemented with 10% fetal bovine serum and 0.5% penicillin-streptomycin and seeded at a density of 10 000 cells/mL in 96-well plates. […] The contact time of incubation was 72 h. Finally, after 3 to 5 hours of incubation with the MTT (0.5 mg/mL), the plates were centrifuged at 1200 rpm for 5 min, the supernatant was discarded, and the formazan crystals formed dissolved in DMSO. A spectrophotometer (680XR, BioRad, Hercules, CA, USA) was used to measure the absorbance (at 570 and 630 nm), which can be directly correlated to the number of viable cells (cell viability (% RC) = (absorbance of treated cells/absorbance of control) × 100).
A general note: Tetrazolium assays rely on reduction of a dye to a coloured formazan, in cell work by metabolically active cells.

For data set [7], the system named is MRSA strains. To be noted: same strain and other MRSA strains; cited from earlier work.
Data set [8] concerns S. aureus MTCC 7405. The arrangement: method as in Dahham et al. (2015). The settings on record: ref Dahham et al. (2015); cited from earlier work.
In data set [9] the test system is green monkey kidney, mouse fibroblast, human retinal ganglion, and human colon fibroblast cell lines. To be noted: cited from earlier work.
Data set [10] concerns S. aureus ATCC 25923 (MSSA). On the set-up: method as in PMID 16619365. To be noted: cited from earlier work.
The subject of data set [11] is MSSA (ATCC 29,213). On the set-up: method as in PMID 32629822. The settings on record: cited from earlier work.
Where [12] appears, read: LMG21674, sample alone, broth microdilution, median, read-out: Direct Activity FUSR MIC.
Where [13] appears, read: sample alone, broth microdilution, median.

SMILES strings stand for the structures. In brackets after ≈: the same amount, converted by molar mass. Read-outs that look alike come from different tables or passages of the source. Bounds are passed on as bounds.

As for `Cc1ccc(C(C)C)cc1O` [Carvacrol], the cytotoxicity result in data set [1] is listed as “low cytotoxicity”. Further, the “decrease of the MIC of penicillin V on FUSR S. aureus” value in [2] was determined as 4 fold. The “decrease of the MIC of penicillin V on MRSA” value (“decrease of the MIC … on MRSA” below) in data set [3] is on record as 4 fold. In addition, the MIC – broadly, the lowest concentration found to suppress growth – in data set [4] (LMG21674, read-out: Direct Activity FUSR MIC) is 62.5 µg/mL (≈ 416 µM); in data set [5], 250 µg/mL (≈ 1660 µM).

`C=CC(C)(O)CCC=C(C)C` (stereo not shown) [Linalool]: the IC50 – broadly, the concentration that inhibits the measured activity by half – at 72 h in data set [6] was less than 31.3 µg/mL. For the same compound, the MIC in data set [4] (setting [12]) and in data set [5] (setting [13]) was greater than 1000 µg/mL in each case.

Take `CC1(C)S[C@@H]2[C@H](NC(=O)COc3ccccc3)C(=O)N2[C@H]1C(=O)O` [PEN V, penicillin V]: the MIC in [4] (setting [12]) turned out to be 16 µg/mL (≈ 45.7 µM); in data set [5] (setting [13]), 4 µg/mL (≈ 11.4 µM).

As to `Cc1ccc(C(C)C)c(O)c1` [Thymol], the cytotoxicity entry in data set [1] is listed as “low cytotoxicity”. The “decrease of the MIC … on MRSA” value in data set [3] is on record as 4 fold. Besides, the MIC in data set [4] (setting [12]) is 125 µg/mL (≈ 832 µM); in data set [5] (setting [13]) it was 250 µg/mL (≈ 1660 µM); in data set [7] it was “around 600 μg/mL”.

For `CC(=O)O[C@H]1C[C@@]2(C)[C@@H](C[C@@H](O)[C@H]3[C@@]4(C)CC[C@@H](O)[C@@H](C)[C@@H]4CC[C@@]32C)/C1=C(\CCC=C(C)C)C(=O)O` [fusidic acid], the MIC in data set [4] (setting [12]) was 256 µg/mL (≈ 495 µM).

With `Cc1ccc(C(C)C)cc1` [p-cymene], the MIC in [4] (setting [12]) and in data set [5] (setting [13]) was greater than 1000 µg/mL each time. In [4] (setting [13]), the “Direct Activity FUSR MIC” value is reported as “No direct activity”.

Turning to `C=C1CC/C=C(\C)CC[C@@H]2[C@@H]1CC2(C)C` [β-caryophyllene], in data set [8], the “MIC compared with kanamycin” value is reported as “a better MIC on S. aureus MTCC 7405 than the kanamycin”. Further, the cytotoxic effect result in data set [9] is “low cytotoxic effect”. The MIC in data set [10] was 5.1 µg/mL (≈ 25 µM); in [11], 313 µg/mL (≈ 1530 µM); in data set [4] (setting [12]), 31.3 µg/mL (≈ 153 µM); in [5] (setting [13]), greater than 1000 µg/mL. In data set [2], the “decrease of the MIC of penicillin V on FUSR S. aureus” value was determined as 267 fold. Moreover, the “decrease of the MIC … on MRSA” value in data set [3] is reported as 4 fold.

Consider `C=CC(=C)CCC=C(C)C` [β-myrcene], for which the MIC in [4] (setting [12]) and in data set [5] (setting [13]) was greater than 1000 µg/mL in each case.

As to `C=C1CCC2CC1C2(C)C` (stereo not drawn) [β-pinene], the MIC in data set [4] (setting [12]) was 250 µg/mL (≈ 1840 µM); in [5] (setting [13]) it was greater than 1000 µg/mL.

As for `CC1=CCC(C(C)C)=CC1` [γ-terpinene], the MIC in data set [4] (setting [12]) and in data set [5] (setting [13]) was greater than 1000 µg/mL in each case. Moreover, the “Direct Activity FUSR MIC” value in data set [4] (setting [13]) is listed as “No direct activity”.

Source of the values: publication PMC8156816, “Antibacterial Activities of Homemade Matrices Miming Essential Oils Compared to Commercial Ones” (Antibiotics, 2021).
